What was measured:
[1] = tested on: LOVO (colon) xenograft; assay: in vivo activity in LOVO xenograft model; parameters: species or system human; settings: LOVO (colon) xenograft in nude mice; 10 mg/kg daily po; 21 days following commencement of treatment
Method: (§1) Female nu/nu (nude) mice obtained from Charles River Laboratories (Wilmington, Mass.) or female SCID-beige mice (Taconic, Germantown, N.Y.) were used (10 mice/group) when they were approximately 8 to 14 weeks old and weighed approximately 23 to 25 grams. All animal experiments were performed in accordance with protocols approved by the Roche Animal Care and Use Committee (RACUC).
(§2) The human cancer cell lines LOVO, BxPC3, HCT-116, A549, AsPC-1, MiaPaCa-2, and Calu-6 were purchased from the American Type Culture Collection. The H460a cell line was a gift from Dr. Jack Roth (M. D. Anderson Medical Center).
(§3) For xenograft implantation, cells were harvested using 0.05% trypsin, washed and centrifuged in culture medium, and resuspended in either a 1:1 mixture of phosphate buffered saline (PBS) and Matrigel (BxPC-3) or PBS alone (A549, H460a, LOVO, Calu-6, HCT-116, MiaPaca-2, and AsPC-1) at a concentration of 1.5-5×10^7 cells per mL. […]
(§4) Tumor measurements and mouse weights were taken twice per week. Statistical analysis was determined by Mann-Whitney Rank Sum Test, 1-way ANOVA, and post hoc Bonferroni t-test (SigmaStat, version 2.0, Jandel Scientific, San Francisco, Calif.). […]
(§5) Tumor growth inhibition (TGI %) was measured 21 days following the commencement of the treatment.

[2] = tested on: BxPC3 (pancreatic) xenograft; assay: in vivo activity in BxPC3 xenograft model; parameters: species or system human; settings: BxPC3 (pancreatic) xenograft in SCID-beige mice; 10 mg/kg daily po; 21 days following commencement of treatment
Method: as §1, §2, §3, §4, §5

[3] = tested on: HCT-116 (colon) xenograft; assay: in vivo activity in HCT-116 xenograft model; parameters: species or system human; settings: HCT-116 (colon) xenograft in nude mice; 10 mg/kg daily po; 21 days following commencement of treatment
Method: as §1, §2, §3, §4, §5

[4] = tested on: A549 (NSCLC) xenograft; assay: in vivo activity in A549 xenograft model; parameters: species or system human
Method: as §1, §2, §3, §4
Tumor growth inhibition (TGI %) was measured 21 days following the commencement of the treatment. […]

[5] = tested on: AsPC-1 (pancreatic) xenograft; assay: in vivo activity in AsPC-1 xenograft model; parameters: species or system human; settings: AsPC-1 (pancreatic) xenograft in nude mice; 10 mg/kg daily po; 21 days following commencement of treatment
Method: as §1, §2, §3, §4, §5

[6] = tested on: MiaPaCa-2 (pancreatic) xenograft; assay: in vivo activity in MiaPaCa-2 xenograft model; parameters: species or system human; settings: MiaPaCa-2 (pancreatic) xenograft in nude mice; 10 mg/kg daily po; 21 days following commencement of treatment
Method: as §1, §2, §3, §4, §5

[7] = tested on: Calu-6 (NSCLC) xenograft; assay: in vivo activity in Calu-6 xenograft model; parameters: species or system human; settings: Calu-6 (NSCLC) xenograft in nude mice; 60 mg/kg daily every other week for 4 weeks (7+/7- x 2 cycles) po; 21 days following commencement of treatment
Method: as §1, §2, §3, §4, §5

[8] = tested on: H460a (NSCLC) xenograft; assay: in vivo activity in H460a xenograft model; parameters: species or system human
Method: as §1, §2
For xenograft implantation, cells were harvested using 0.05% trypsin, washed and centrifuged in culture medium, and resuspended in either a 1:1 mixture of phosphate buffered saline (PBS) and Matrigel (BxPC-3) or PBS alone (A549, H460a, LOVO, Calu-6, HCT-116, MiaPaca-2, and AsPC-1) at a concentration of 1.5-5×10^7 cells per mL. A volume of 0.2 mL cell suspension (7.5×10^6 cells for A549, 1×10^7 cells for H460a, 3×10^6 cells for Calu-6 and HCT116, 5×10^6 cells for BxPC3 and AsPC-1, 6×10^6 cells for MiaPaca-2, and 5×10^6 for LOVO) per mouse was implanted subcutaneously in the right flank. All xenograft models were implanted into nude mice with the exception of BxPC3, which was implanted into SCID-beige mice. Tumors were allowed to grow for 8 to 26 days post implant when mean volume reached ˜100-150 mm^3, after which animals were randomized into treatment groups.
Compound I (synthesized according to the procedure described in WO2005/023772) was formulated as a suspension in 1.0% Klucel in water with 0.2% Tween®-80 for oral (po) administration. Formulated compound and vehicle were prepared weekly and stored at 4° C. In the Calu-6 xenograft model, Compound I was dosed at 60 mg/kg daily every other week for 4 weeks (7+/7−×2 cycles). All other xenograft models were dosed with Compound I at 10 mg/kg daily.
Tumor measurements and mouse weights were taken twice per week. Statistical analysis was determined by Mann-Whitney Rank Sum Test, 1-way ANOVA, and post hoc Bonferroni t-test (SigmaStat, version 2.0, Jandel Scientific, San Francisco, Calif.). Differences between groups were considered significant when the probability value (p) was ≦0.05.
as §5
(§6) Cells from the aforementioned four groups and parental A549 and H460a cells were used to make xenograft models using the procedure described in Example 1. […]

[9] = tested on: A549 vector control tumors; assay: in vivo activity in A549 vector control xenograft model; parameters: species or system human; settings: Example 5, 10 mg/kg once daily, after 21 days
From the text: (§7) IL6 and IL8 lentiviruses were made using IL6 and IL8 plasmids (available from Genecopoeia, Rockville, Md., USA), respectively. A549 cells were divided into three groups with one group receiving a vector control, one group being infected with the IL6 lentivirus and the third group being infected with the IL8 lentivirus. The later two groups formed cell pools with stable expression of exogenous IL6 and IL8, respectively.
as §6

[10] = tested on: A549 cells overexpressing IL6 (xenograft); assay: in vivo activity in IL6-overexpressing A549 xenograft model; parameters: species or system human; settings: Example 5, 10 mg/kg once daily, after 21 days
From the text: as §7, §6

[11] = tested on: A549 cells overexpressing IL8 (xenograft); assay: in vivo activity in IL8-overexpressing A549 xenograft model; parameters: species or system human; settings: Example 5, 10 mg/kg once daily, after 21 days
From the text: as §7, §6

[12] = tested on: 1:1 mixture of A549 overexpressing IL6 or IL8 (xenograft); assay: in vivo activity in xenograft of 1:1 mixture of IL6- and IL8-overexpressing A549 cells; parameters: species or system human; settings: Example 5; tumors from 1:1 mixture of A549 overexpressing IL6 or IL8; 10 mg/kg once daily; after 21 days
From the text: as §7
A portion of the IL6 overexpressing A549 cells and the IL8 overexpressing A549 cells were then combined to form a fourth group containing a 1:1 mixture of such cells.
as §6

[13] = tested on: Hes1 mRNA; assay: downregulation of Hes1 mRNA following in vitro treatment (Notch signaling blockage); assay type: cell-based, human
From the text: Expression of IL6 and IL8 was then quantified in the BxPC3, HCT-116, A549, AsPC-1, MiaPaCa-2, and Calu-6 cell lines by measuring the level of mRNA using qRT-PCR. RNA isolation, and reverse transcription-PCR (RT-PCR) were done using standard laboratory techniques. The catalogue numbers for each probe set were Hes1 (Hs00172878_ml), ACTB (4333762F), IL6 (Hs00174131_ml), IL8 (Hs00174103_ml) and 18S (4319413E).

[14] = tested on: IL8-knockdown H460a xenograft; assay: in vivo activity in IL8-knockdown H460a xenograft model; parameters: species or system human; settings: Example 6; IL8-knockdown H460a tumors; 10 mg/kg once daily for 21 days
From the text: Lentiviruses were made using pLKO.1-based anti-IL8 shRNA (purchased from Open Biosystems) and used to stably knockdown IL8 expression in H460a cells. […] IL8-knockdown H460a cells, however, still had more than 2-fold higher IL8 levels compared to A549 cells.
Parental H460a cells and IL8-knockdown H460a cells were then implanted as xenografts in mice using the procedures described in Example 1. The mice were then randomized into different treatment groups (10 mice/group): H460a xenograft mice receiving vehicle once daily, H460a xenograft mice receiving Compound I at 10 mg/kg once daily, IL8-knockdown H460a xenograft mice receiving vehicle once daily, and IL8-knockdown H460a xenograft mice receiving Compound I at 10 mg/kg once daily.

[15] = tested on: U87MG (glioblastoma) xenograft; assay: in vivo activity in U87MG xenograft model; parameters: species or system human; settings: U87MG xenograft in nude mice; 10 mg/kg once daily for 21 days
Method: (§8) The human cancer cell lines U87MG and LOX were purchased from the American Type Culture Collection. Xenografts were implanted in female nu/nu (nude) mice obtained from Charles River Laboratories (Wilmington, Mass.) (10 mice/group) when they were approximately 8 to 14 weeks old and weighed approximately 23 to 25 grams. All animal experiments were performed in accordance with protocols approved by the Roche Animal Care and Use Committee (RACUC). For xenograft implantation, cells were harvested using 0.05% trypsin, washed and centrifuged in culture medium, and resuspended in either a 1:1 mixture of phosphate buffered saline (PBS) and Matrigel (U87MG) or PBS alone (LOX) at a concentration of 1.5-5×10^7 cells per mL. A volume of 0.2 mL cell suspension (5×10^6 cells for U87MG, 2×10^6 cells for LOX) per mouse was implanted subcutaneously in the right flank. Tumors were allowed to grow for 8 to 26 days post implant when mean volume reached ˜100-150 mm^3, after which animals were randomized into treatment groups: U87MG xenograft mice receiving vehicle (Klucel and Tween) once daily, U87MG xenograft mice receiving Compound I at 10 mg/kg once daily for 21 days, LOX xenograft mice receiving vehicle (Klucel and Tween) once daily, and LOX xenograft mice receiving Compound I at 10 mg/kg once daily for 11 days.

[16] = tested on: LOX (melanoma) xenograft; assay: in vivo activity in LOX xenograft model; parameters: species or system human; settings: LOX xenograft in nude mice; 10 mg/kg once daily for 11 days
Method: as §8

[17] = tested on: genes associated with angiogenesis; settings: Luistro et al., Cancer Research 69:7672-80 (2009), cited from earlier work
[18] = tested on: H460a, A549 parental, A549 control, A549 IL6, A549 IL8 and 1:1 mixture xenograft models; assay: Taxol positive drug control across the xenograft models of Example 5; assay type: in vivo, human; settings: 30 mg/kg, all xenograft models of FIG. 5
From the text: as §6

## CC(C)(C(=O)NCC(F)(F)C(F)(F)F)C(=O)N[C@@H]1C(=O)Nc2ccccc2-c2ccccc21 [Compound I, 2,2-dimethyl-N-((S)-6-oxo-6,7-dihydro-5H-dibenzo[b,d]azepin-7-yl)-N′-(2,2,3,3,3-pentafluoro-propyl)-malonamide]
[1]
  TGI %: 83%
[2]
  TGI %: 82%
[3]
  TGI %: 76%
[4]; A549 (NSCLC) xenograft in nude mice, 10 mg/kg daily po, 21 days following commencement of treatment
  TGI %: 70%
[4]; Example 5, parental A549 tumors, 10 mg/kg once daily, after 21 days
  TGI: 71%
[5]
  TGI %: 58%
[6]
  TGI %: 53%
[7]
  TGI %: 42%
[8]; Example 5, H460a xenograft (high IL6 and IL8), 10 mg/kg once daily, after 21 days
  TGI: 9%
[8]; Example 6, parental H460a tumors, 10 mg/kg once daily for 21 days
  TGI: 5%
[8]; Example 7, H460a xenograft, Compound I 10 mg/kg once daily, anti-IL8 antibody 20 mg/kg twice weekly
  TGI: 10%
[8]; Example 8, H460a xenograft, Compound I 10 mg/kg once daily, anti-IL6 antibody 20 mg/kg twice weekly
  TGI: 43%
[8]; H460a (NSCLC) xenograft in nude mice, 10 mg/kg daily po, 21 days following commencement of treatment (Example 1)
  TGI %: 8%
[9]
  TGI: 61%
[10]
  TGI: 32%
[11]
  TGI: 45%
[12]
  TGI: 8%
[13]; A549 overexpressing IL6
  downregulation of Hes1 mRNA: properly maintained
[13]; A549 overexpressing IL8
  downregulation of Hes1 mRNA: properly maintained
[13]; LOX cells
  downregulation of Hes1 mRNA: properly maintained
[13]; U87MG cells
  downregulation of Hes1 mRNA: properly maintained
[14]
  TGI: 24%
[15]
  TGI: −17%
[16]
  TGI: 15%
[17]; H460a xenograft
  change in the angiogenic gene profile: little change
[17]; treated xenografts
  expression of genes associated with angiogenesis: reduced expression

## CC(=O)O[C@H]1C(=O)[C@@]2(C)[C@H]([C@H](OC(=O)c3ccccc3)[C@]3(O)C[C@H](OC(=O)[C@H](O)[C@@H](NC(=O)c4ccccc4)c4ccccc4)C(C)=C1C3(C)C)[C@]1(OC(C)=O)CO[C@@H]1C[C@@H]2O [Taxol®]
[18]
  TGI (positive drug control): consistent TGI across the various models
